Measurements as given in ChEMBL document CHEMBL1134583, “Synthesis and biological activity of D- and L-chiro-inositol 2,3,4,5-tetrakisphosphate: design of a novel and potent inhibitor of Ins(3,4,5,6)P4 1-kinase/Ins(1,3,4)P3 5/6-kinase” (J Med Chem, 2001).
Where “and” joins values, the source holds several entries; their conditions need not be identical. Identical values can stand only once.

assay: Inhibition against Inositol (3,4,5,6)P4 1-kinase from bovine aorta; set-up: species or system Bos taurus

Row | IC50 | SMILES
1 | > 30 µM | O=P(O)(O)OC1[C@H](O)C(O)C(OP(=O)(O)O)[C@H](O)[C@@H]1OP(=O)(O)O (stereo not given in full)
2 | 16.7 µM | O=P(O)(O)O[C@H]1[C@H](O)[C@@H](OP(=O)(O)O)[C@H](OP(=O)(O)O)[C@@H](OP(=O)(O)O)[C@H]1O (stereo in doubt; 13)
3 | 48 µM | O=P(O)(O)O[C@@H]1[C@H](O)[C@H](O)[C@@H](OP(=O)(O)O)[C@H](OP(=O)(O)O)[C@H]1O [INS(1,4,5)P3]
4 | 4.2 µM | O=P(O)(O)OC1C(OP(=O)(O)O)[C@H](OP(=O)(O)O)[C@H](O)C(O)[C@@H]1O (stereo not given in full)
5 | 1.5 µM | O=P(O)(O)O[C@H]1[C@H](OP(=O)(O)O)[C@@H](OP(=O)(O)O)[C@@H](O)[C@H](O)[C@H]1OP(=O)(O)O (stereo in doubt; 3)
6 | > 30 µM | O=P(O)(O)O[C@@H]1[C@@H](OP(=O)(O)O)[C@@H](OP(=O)(O)O)[C@H](O)[C@@H](O)[C@@H]1OP(=O)(O)O
7 | 15 µM | O=P(O)(O)OC1C(OP(=O)(O)O)[C@H](OP(=O)(O)O)[C@H](OP(=O)(O)O)C(OP(=O)(O)O)[C@@H]1O (stereo not given in full) [IONOSITOL (1,3,4,5,6) P5]
8 | 0.7 µM | O=P(O)(O)OC1C(OP(=O)(O)O)[C@H](O)[C@H](OP(=O)(O)O)C(O)[C@@H]1O (stereo not given in full)
9 | > 30 µM | O=P(O)(O)O[C@@H]1[C@@H](OP(=O)(O)O)[C@@H](OP(=O)(O)O)[C@@H](O)[C@@H](O)[C@@H]1OP(=O)(O)O
10 | 14.5 µM | O=P(O)(O)OC1C(OP(=O)(O)O)[C@@H](O)[C@H](OP(=O)(O)O)C(OP(=O)(O)O)[C@@H]1O (stereo not given in full)
11 | 9 µM | O=P(O)(O)O[C@H]1[C@H](O)[C@@H](OP(=O)(O)O)[C@H](OP(=O)(O)O)[C@@H](OP(=O)(O)O)[C@H]1O (stereo in doubt; 14)
12 | 1.6 µM | O=P(O)(O)O[C@H]1[C@H](OP(=O)(O)O)[C@@H](OP(=O)(O)O)[C@@H](O)[C@H](O)[C@H]1OP(=O)(O)O (stereo in doubt; 12)
13 | 17 µM | O=P(O)(O)OC1C(O)[C@H](O)[C@H](OP(=O)(O)O)C(OP(=O)(O)O)[C@@H]1O (stereo not given in full)
14 | 0.17 µM and 0.2 µM | O=P(O)(O)OC1C(OP(=O)(O)O)[C@H](O)[C@H](O)C(OP(=O)(O)O)[C@@H]1O (stereo not given in full)

assay: Inhibition of Inositol (3,4,5,6)P4 1-kinase from bovine aorta; set-up: species or system Bos taurus

Row | IC50 [µM] | SMILES
15 | 0.28 | O=P(O)(O)OC1C(OP(=O)(O)O)[C@H](O)[C@H](O)C(OP(=O)(O)O)[C@@H]1O (stereo not given in full)
